From publication PMC9090415, “Discovery of small molecule inhibitors of Plasmodium falciparum apicoplast DNA polymerase” (Journal of Enzyme Inhibition and Medicinal Chemistry, 2022)

Assays:
[1] = molecular target: T1, P. berghei apicoplast DNA polymerase (Pb-apPOL) (Plasmodium berghei, UniProt A0A509ALK1); assay: In vitro DNA polymerase inhibition assay, Pb-apPOL; assay type: biochemical; conditions: Table 2
T1 sequence (A0A509ALK1 1182-1809): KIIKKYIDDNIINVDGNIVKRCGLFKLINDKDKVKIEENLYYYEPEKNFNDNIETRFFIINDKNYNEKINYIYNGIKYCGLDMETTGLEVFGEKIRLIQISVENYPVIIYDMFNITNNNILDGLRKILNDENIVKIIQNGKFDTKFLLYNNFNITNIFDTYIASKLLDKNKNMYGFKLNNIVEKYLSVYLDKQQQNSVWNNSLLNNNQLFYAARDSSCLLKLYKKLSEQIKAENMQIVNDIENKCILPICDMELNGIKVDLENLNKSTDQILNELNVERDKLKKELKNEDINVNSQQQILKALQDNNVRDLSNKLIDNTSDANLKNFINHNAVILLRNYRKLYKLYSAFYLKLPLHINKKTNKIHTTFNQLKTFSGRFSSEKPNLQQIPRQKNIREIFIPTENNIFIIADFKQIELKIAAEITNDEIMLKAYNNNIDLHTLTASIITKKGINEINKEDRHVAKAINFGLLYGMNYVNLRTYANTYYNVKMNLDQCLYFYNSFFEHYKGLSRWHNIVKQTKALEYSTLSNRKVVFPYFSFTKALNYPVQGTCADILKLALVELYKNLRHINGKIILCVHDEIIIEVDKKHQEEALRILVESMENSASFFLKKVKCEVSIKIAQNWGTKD
Experimental: (§1) Codon-optimized, exonuclease-deficient Pf-apPOL was overexpressed in E. coli BL21 (DE3) and purified as described. The protein was dialysed against two, 1-liter changes of 20 mM Tris-HCl (pH 8.0), 400 mM NaCl, and 20% glycerol. Plasmodium bergei and Babesia bovis apPOLs (Pb-apPOL and Bb-apPOL, respectively) were codon-optimized, expressed, and purified as for Pf-apPOL[15]. Bacteriophage T4 DNA polymerase was purified as described. The DNA oligonucleotides used to make the high-throughput substrate were obtained from Integrated DNA Technologies. Deoxynucleotides were purchased from Strategene. All other materials came from Fisher Scientific.
The HT assay employs a molecular beacon, a stem-loop DNA template with a Cy3 dye and the Black Hole Quencher on the 3′ and 5′ ends of the DNA, respectively. Pf-apPOL concentration is based on a calculated absorptivity of ε280 = 56750 M^−1 cm^−1. Reactions were carried out at 25 °C, using Corning 3575 […] (well-volume, 20 µL). Assays testing for compound inhibition composed of reaction buffer (pH 7.9 in 50 mM potassium acetate, 20 mM Tris-acetate and 10 mM magnesium acetate), Pf-apPOL (20 nM), DNA substrate (20 nM), dNTPs (6 µM), and compound (10 µM in DMSO). The DNA and nucleotide substrates (dNTPs) were at concentrations of 20 nM and 6 µM, respectively, in the assay. Pf-apPOL was incubated in the reaction buffer with dNTPs and the compound of interest (10 µM, in the assay) at 25 °C for 10 min. The DNA substrate was then added and the reaction was allowed to proceed for 90 min at 25 °C.
In the above, Min is the average of fluorescence emission of the negative controls (substrate only), Max the average fluorescence emission from the positive controls (enzyme + substrate), and Test the emission from the assays in the presence of compounds (enzyme + compound + substrates). Dose-response confirmation assays were performed under similar conditions as the primary screen, but monitoring fluorescence at 10, 90, and 180 min. Tested concentrations of compounds were 2.5, 10, 20, 40, and 80 µM. The IC50 of each compound was determined using Equation (2): (2) […] Vmax/(1+ (I/IC50)^n)
We tested the ability of the 102 compounds to kill P. falciparum parasites cultured in human red blood cells. Due to the number of compounds, we used a single inhibitor concentration of 20 µM and performed experiments in triplicate. These single-dose assays identified 9 compounds that inhibited parasite growth by more than 50%. These compounds were then tested in a dose-response format against chloroquine resistant P. falciparum parasites (Dd2) and the resulting data were fit to a sigmoidal growth inhibition curve to determine EC50 values (Figure 5, Table 2). […] Inhibition of Pb-apPOL is a desired feature because it is likely that future in vivo studies will be performed in the mouse model for Malaria. […] The in vitro polymerase assays identified 5 compounds that were potent inhibitors of all three apicoplast polymerases and a single compound that inhibited Pf-apPOL and Bb-apPOL but not Pb-apPOL (Table 2). Finally, to determine if the compounds were killing the parasites solely via apicoplast disruption, the dose-response curves were also performed with 1 mM isopentylpyrophosphate (IPP) in the growth media (Table 2). […] At this time, it is unclear what the non-apicoplast target(s) may be. One intriguing possibility is that these compounds may be targeting both the apicoplast and the mitochondrial DNA polymerases. […]

[2] = molecular target: Babesia bovis apicoplast DNA polymerase (Bb-apPOL); assay: In vitro DNA polymerase inhibition assay, Bb-apPOL; assay type: biochemical; conditions: Table 2
Experimental: as §1
We tested the ability of the 102 compounds to kill P. falciparum parasites cultured in human red blood cells. Due to the number of compounds, we used a single inhibitor concentration of 20 µM and performed experiments in triplicate. […] These compounds were then tested in a dose-response format against chloroquine resistant P. falciparum parasites (Dd2) and the resulting data were fit to a sigmoidal growth inhibition curve to determine EC50 values (Figure 5, Table 2). […] Finally, to determine if the compounds were killing the parasites solely via apicoplast disruption, the dose-response curves were also performed with 1 mM isopentylpyrophosphate (IPP) in the growth media (Table 2). […] Very little is known regarding mitochondrial DNA replication in P. falciparum; however, signal sequence identification algorithms have predicted that the other bacterial A-family DNA polymerase residing in P. falciparum is targeted to the mitochondria (PF3D7_0625300)[29]. […] We are currently in the process of cloning and expressing this putative mitochondrial DNA polymerase to determine the effect of these compounds on its activity.

SMILES | IC50 [1] | IC50 [2]
COc1ccc(CNC(=O)Cn2nc3c(c2NC(=O)Cc2cccs2)CSC3)cc1 [Molecule 55] | 51.9 ± 3.5 µM | 1.5 ± 1 µM
OC(C#Cc1ccccc1)c1ccco1 (centres unmarked) [Molecule 95] | 8.6 ± 0.7 µM | 2.5 ± 0.2 µM
O=C(O)c1ccc(-c2nc3cc(-c4ccc5nc(-c6ccc(C(=O)O)cc6)[nH]c5c4)ccc3[nH]2)cc1 [Molecule 1] | 7.1 ± 0.6 µM | 3.7 ± 0.2 µM
CCOc1nc2cccc(C(=O)OC(C)OC(=O)OC3CCCCC3)c2n1Cc1ccc(-c2ccccc2-c2nnn[nH]2)cc1 (centres unmarked) [Molecule 94] | 13.9 ± 1.6 µM | 30 ± 3 µM
